Experimental data reported in ChEMBL document CHEMBL1208782, “Synthesis and pharmacological validation of a novel series of non-steroidal FXR agonists” (Bioorg Med Chem Lett, 2010).

Assays:
Assay type in all cases: functional, cell-based
[1] = target: T1, Bile acid receptor (Homo sapiens) (UniProt Q96RI1); assay: Agonist activity at human […] FXR LBD expressed in HEK293 cells coexpressing GAL4-DNA bindig domain and pFRluc by mammalian one-hybrid assay relative to GW-4064
T1 sequence (whole entry): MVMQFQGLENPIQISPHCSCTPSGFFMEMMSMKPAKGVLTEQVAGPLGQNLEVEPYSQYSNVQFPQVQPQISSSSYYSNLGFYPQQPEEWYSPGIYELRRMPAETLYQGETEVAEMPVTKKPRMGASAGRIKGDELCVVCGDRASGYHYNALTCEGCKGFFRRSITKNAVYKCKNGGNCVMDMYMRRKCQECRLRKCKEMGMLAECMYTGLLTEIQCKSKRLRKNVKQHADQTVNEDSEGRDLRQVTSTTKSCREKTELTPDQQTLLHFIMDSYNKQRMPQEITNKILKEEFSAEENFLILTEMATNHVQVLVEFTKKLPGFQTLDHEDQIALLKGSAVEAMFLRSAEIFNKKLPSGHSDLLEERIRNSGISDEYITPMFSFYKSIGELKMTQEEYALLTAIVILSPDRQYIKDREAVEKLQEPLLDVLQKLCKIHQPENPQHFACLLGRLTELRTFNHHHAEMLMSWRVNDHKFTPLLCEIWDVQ

[2] = target: T2, Retinoic acid receptor beta (Homo sapiens, UniProt P10826); assay: Agonist activity at RARbeta-LBD expressed in HEK293 cells assessed as Gal4-DBD interaction by cellular mammalian one hybrid assay
T2 sequence (P10826 whole entry): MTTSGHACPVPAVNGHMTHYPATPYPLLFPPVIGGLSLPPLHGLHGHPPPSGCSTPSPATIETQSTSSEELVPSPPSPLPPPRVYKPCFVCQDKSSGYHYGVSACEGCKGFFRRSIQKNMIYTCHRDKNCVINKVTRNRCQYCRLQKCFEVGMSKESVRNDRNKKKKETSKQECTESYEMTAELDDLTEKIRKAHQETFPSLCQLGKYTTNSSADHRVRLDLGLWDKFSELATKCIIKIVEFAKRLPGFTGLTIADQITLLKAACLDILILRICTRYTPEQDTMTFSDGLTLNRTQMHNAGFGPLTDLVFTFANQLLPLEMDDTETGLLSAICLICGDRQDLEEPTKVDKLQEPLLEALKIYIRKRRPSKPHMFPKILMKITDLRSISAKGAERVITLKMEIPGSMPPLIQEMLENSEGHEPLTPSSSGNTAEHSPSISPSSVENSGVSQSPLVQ

[3] = target: T3, Peroxisome proliferator-activated receptor gamma (Homo sapiens) (UniProt P37231); assay: Agonist activity at PPARgamma-LBD expressed in HEK293 cells assessed as Gal4-DBD interaction by cellular mammalian one hybrid assay relative to rosiglitazone
T3 sequence (whole entry): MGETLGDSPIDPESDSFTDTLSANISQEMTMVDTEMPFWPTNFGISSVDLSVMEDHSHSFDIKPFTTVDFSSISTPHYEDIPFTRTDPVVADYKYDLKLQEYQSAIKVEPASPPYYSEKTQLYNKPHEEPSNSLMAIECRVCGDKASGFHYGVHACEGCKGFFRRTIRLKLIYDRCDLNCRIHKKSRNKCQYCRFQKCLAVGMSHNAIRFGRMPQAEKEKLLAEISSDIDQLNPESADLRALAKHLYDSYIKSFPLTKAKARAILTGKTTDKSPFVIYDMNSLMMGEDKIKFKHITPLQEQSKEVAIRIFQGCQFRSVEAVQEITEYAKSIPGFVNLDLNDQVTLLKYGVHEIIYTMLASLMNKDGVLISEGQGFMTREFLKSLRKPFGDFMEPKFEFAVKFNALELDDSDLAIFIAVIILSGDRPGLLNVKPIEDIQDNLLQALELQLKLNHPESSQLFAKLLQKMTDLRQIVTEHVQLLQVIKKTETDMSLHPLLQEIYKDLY

[4] = target: T4, Mineralocorticoid receptor (Homo sapiens) (UniProt P08235); assay: Agonist activity at mineralocorticoid receptor-LBD expressed in HEK293 cells assessed as Gal4-DBD interaction by cellular mammalian one hybrid assay relative to mineralocorticoid
T4 sequence (whole entry): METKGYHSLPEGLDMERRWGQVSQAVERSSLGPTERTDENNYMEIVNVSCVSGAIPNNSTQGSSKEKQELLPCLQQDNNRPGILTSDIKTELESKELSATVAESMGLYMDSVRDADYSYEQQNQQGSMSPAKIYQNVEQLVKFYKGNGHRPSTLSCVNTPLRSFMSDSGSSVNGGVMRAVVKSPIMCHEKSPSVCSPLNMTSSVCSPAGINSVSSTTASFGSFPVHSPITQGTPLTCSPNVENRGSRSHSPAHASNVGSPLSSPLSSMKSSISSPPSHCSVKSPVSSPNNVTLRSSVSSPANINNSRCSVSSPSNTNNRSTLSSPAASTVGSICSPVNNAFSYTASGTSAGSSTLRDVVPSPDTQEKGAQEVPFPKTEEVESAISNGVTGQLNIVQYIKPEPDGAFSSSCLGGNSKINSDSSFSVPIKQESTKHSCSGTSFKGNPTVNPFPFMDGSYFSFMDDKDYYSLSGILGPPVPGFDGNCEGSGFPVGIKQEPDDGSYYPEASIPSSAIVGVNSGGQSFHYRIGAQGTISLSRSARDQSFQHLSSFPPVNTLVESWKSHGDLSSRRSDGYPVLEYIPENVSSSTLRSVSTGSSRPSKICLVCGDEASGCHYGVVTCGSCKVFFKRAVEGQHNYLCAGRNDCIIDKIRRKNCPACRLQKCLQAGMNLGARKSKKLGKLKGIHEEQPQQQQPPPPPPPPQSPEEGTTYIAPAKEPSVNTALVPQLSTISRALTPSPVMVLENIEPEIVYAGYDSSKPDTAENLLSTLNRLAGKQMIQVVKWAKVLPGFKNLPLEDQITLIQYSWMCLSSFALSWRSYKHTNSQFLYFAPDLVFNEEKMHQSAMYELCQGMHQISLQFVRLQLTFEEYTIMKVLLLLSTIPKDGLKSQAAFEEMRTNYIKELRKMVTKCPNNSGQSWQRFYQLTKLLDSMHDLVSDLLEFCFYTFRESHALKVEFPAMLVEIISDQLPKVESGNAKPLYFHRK

CN(Cc1ccc(C(=O)O)cc1)c1ccc(OCc2c(-c3c(Cl)cccc3Cl)noc2C2CC2)nc1C(F)(F)F
Efficacy [1]: 81% | EC50 [2]: > 10 µM | Efficacy [3]: 0% | Efficacy [4]: 0%

CN(Cc1cccc(C(=O)O)c1)c1ccc(OCc2c(-c3c(Cl)cccc3Cl)noc2C2CC2)nc1C(F)(F)F
Efficacy [1]: 79% | EC50 [2]: > 10 µM | Efficacy [3]: 10% | Efficacy [4]: 0%

CC(C)c1onc(-c2c(Cl)cccc2Cl)c1COc1ccc(N(C)Cc2ccc(C(=O)O)cc2)c(C(F)(F)F)n1
Efficacy [1]: 75% | EC50 [2]: > 10 µM | Efficacy [3]: 0% | Efficacy [4]: 0%
